Experimental data as given in PMC9865645, “The Impact of N^ε-Acryloyllysine Piperazides on the Conformational Dynamics of Transglutaminase 2” (International Journal of Molecular Sciences, 2023).

Target: T1, self-produced hTGase 2 (Homo sapiens, UniProt P21980)
T1 construct: thrombin cleavage site (N); made in house; host or cells: E. coli BL21(DE3)
T1 sequence (P21980 1-687): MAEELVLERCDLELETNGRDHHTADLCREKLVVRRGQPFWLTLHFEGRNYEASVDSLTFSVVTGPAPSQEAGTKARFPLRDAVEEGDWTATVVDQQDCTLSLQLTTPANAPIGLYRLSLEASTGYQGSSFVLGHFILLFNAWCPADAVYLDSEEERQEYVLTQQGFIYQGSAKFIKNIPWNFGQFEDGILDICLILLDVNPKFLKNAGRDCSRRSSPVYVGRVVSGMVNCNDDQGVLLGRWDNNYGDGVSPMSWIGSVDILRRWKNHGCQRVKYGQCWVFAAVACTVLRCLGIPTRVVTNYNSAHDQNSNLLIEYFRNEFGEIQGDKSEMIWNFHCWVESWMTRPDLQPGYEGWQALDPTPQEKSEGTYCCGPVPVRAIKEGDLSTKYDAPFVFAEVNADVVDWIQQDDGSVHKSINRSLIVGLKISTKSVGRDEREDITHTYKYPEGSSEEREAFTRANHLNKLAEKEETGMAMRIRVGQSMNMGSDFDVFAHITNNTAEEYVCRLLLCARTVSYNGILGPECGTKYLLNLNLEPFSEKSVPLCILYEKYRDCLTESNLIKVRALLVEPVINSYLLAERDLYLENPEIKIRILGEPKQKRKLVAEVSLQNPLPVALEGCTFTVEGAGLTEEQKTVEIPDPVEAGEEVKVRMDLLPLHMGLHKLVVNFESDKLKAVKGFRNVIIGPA
Assay: native (GTP-)PAGE: conformational species of hTGase 2
Conditions: pre-incubation with 500 µM GTPγS
Protocol: Figure 7 Influence of inhibitors 1–3 on the activity and conformation of hTGase 2 in the absence and presence of Ca^2+ or/and GTPγS. Native (GTP-)PAGE was performed on 7% separating gels. The gel and the running buffer contained either no GTP (A) or 50 µM GTP (B). Samples of 8.23 µM self-produced hTGase 2 were incubated for 30 min at 20 °C in 100 mM MOPS pH 8.0, 100 mM NaCl, 5.33% (v/v) glycerol with CaCl2, DMSO or inhibitors 1–3 (2.12% DMSO), and GTPγS as indicated. After adding native loading buffer, 6 µL of each sample containing 3 µg of hTGase 2 was loaded onto the gel. After the electrophoretic separation, gels were stained with Coomassie Brilliant Blue G250, scanned, and the protein bands were quantified (Figure S6 in Supplementary Materials). […]
Sodium dodecyl sulfate-PAGE (SDS-PAGE) and native PAGE were performed on 4% stacking and 7% separating gels using Laemmli buffers (60 min with 120 V, 300 mA and 30 W at room temperature) and the same buffers without SDS (80 min with 120 V, 50 mA and 30 W at 4 °C), respectively. […] Afterward, the gels were scanned using a LI-COR Odyssey Fc Imager (700 channel) and analyzed using Image Studio software version 5.2.5. Detected bands were quantified based on the general procedure published by Wagstaff et al. and as detailed in legends to Figures S5 and S6. […]

Nc1nc2c(ncn2[C@@H]2O[C@H](COP(=O)(O)OP(=O)(O)OP(O)(O)=S)[C@@H](O)[C@H]2O)c(=O)[nH]1 [GTPγS]
effect on migrating hTGase 2 species: favors the fast migrating hTGase 2 species
